The text below walks through data of patent publication US5981517A, “Androstene derivatives” (priority 1997, dated 1999).

As a reminder, the fraction remaining is the share of the starting amount still present when the sample was taken. As a reminder, the IC50 is the concentration that gives 50% inhibition.

For data set [1], the target named is T1, rat lung glucocorticoid receptor (Rattus norvegicus, UniProt P06536).
T1 construct: Immediately after resection of the lungs, the tissue was frozen in ice; The cytosol was prepared; from tissue; host or cells: lung cytosol of adrenalectomized male Sprague-Dawley rats
T1 sequence (P06536 1-795): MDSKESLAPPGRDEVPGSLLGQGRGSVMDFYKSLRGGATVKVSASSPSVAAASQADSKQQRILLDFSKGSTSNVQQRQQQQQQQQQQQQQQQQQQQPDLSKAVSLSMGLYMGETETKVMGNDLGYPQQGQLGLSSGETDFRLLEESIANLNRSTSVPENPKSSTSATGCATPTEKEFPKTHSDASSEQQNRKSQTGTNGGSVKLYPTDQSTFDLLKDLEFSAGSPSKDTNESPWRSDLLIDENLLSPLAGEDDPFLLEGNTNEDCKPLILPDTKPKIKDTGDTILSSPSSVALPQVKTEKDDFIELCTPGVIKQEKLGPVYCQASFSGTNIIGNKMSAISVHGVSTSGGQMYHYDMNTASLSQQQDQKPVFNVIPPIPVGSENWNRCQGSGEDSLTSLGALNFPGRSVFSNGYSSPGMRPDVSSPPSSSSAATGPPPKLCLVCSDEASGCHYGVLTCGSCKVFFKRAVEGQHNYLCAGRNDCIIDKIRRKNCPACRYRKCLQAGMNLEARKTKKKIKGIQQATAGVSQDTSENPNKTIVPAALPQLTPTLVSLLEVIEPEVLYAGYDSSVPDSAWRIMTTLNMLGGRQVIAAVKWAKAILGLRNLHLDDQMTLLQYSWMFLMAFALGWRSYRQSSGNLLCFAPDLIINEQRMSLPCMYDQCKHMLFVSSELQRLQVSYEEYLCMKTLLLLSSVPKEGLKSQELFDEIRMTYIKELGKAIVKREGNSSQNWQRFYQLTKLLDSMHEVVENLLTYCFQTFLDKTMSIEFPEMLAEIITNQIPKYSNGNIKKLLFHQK
Briefly: Receptor binding studies ([3H]triamcinolone acetonide displacement). The following applies: for RBA: further receptor binding studies (Table X), dexamethasone = 100, * mean ± SE of 3-5 results; for IC50: rat lung cytosol, 10 nM [3H]triamcinolone acetonide, 2 h, 24° C., read-out: IC50; for IC50 / Relative binding affinity (RBA): with Δ1-cortienic acid; for Relative binding affinity (RBA): with respect to dexamethasone (RBA = 100). Further details: Receptor binding affinity: scale not given here. Here is the method: Male Sprague-Dawley rats, each weighing 150 to 200 g, were used 6 days after adrenalectomy. Rats were sacrificed by decapitation. Immediately after resection of the lungs, the tissue was frozen in ice. […] Portions (5 ml) of the cytosol were frozen in liquid nitrogen and stored at -80° C.
The cytosol was thawed in a water bath and diluted with 1 part of incubation buffer containing a 15 mM concentration of diisopropyl fluorophosphate. […] After a 2 hour incubation period at room temperature (24° C.), the unbound steroid was removed by addition of a 2% suspension of activated charcoal in incubation buffer (400 μL). The mixture was incubated for 5 minutes at room temperature and then was centrifuged at about 10,000 g for 3 minutes in the microcentrifuge. The radioactivity (cpm) in the supernatant (400 μL) was determined by liquid scintillation counting.
The data is fitted to the following logistic function:
B=T-T * C^N /(C^N +IC50^N)+NS,
where B=CPM in the presence of competitor, T=CPM in the absence of competitor, C=competitor concentration, N=Hill slope factor, and NS=cpm under non-specific binding conditions.
For the representative compound of the invention B, receptor binding affinity was investigated with and without Δ^1 -cortienic acid in the incubation solution to study the effect of Δ^1 -cortienic acid on the receptor binding.
Further studies to evaluate the relative receptor binding affinities of compounds of the invention, other compounds of formula (VII) hereinabove and well-known anti-inflammatory steroids were undertaken, using the methods described in the RECEPTOR BINDING STUDIES set forth above. […] For comparison purposes, the following compounds having formula (VII) above were also tested: […]

The subject of data set [2] is forearms of a human volunteer. The experiment in a line: Further human vasoconstriction testing, Method 1. Note: key: 0: normal skin; 1: slight pallor of indistinct outline; 2: pallor with at least two corners outlined; 3: even pallor with a clear outline of the application sites; 4: very intense pallor. It is filed as in vivo. In a few lines: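 Each mixture, 50 μL in ethanol, was loaded onto circular 8 mm patches. Once the ethanol had evaporated, the patches were placed on a human volunteer's forearms under a water-impervious film for 3 hr. After the patches were removed, vasoconstriction was scored at intervals from 0 (normal skin) to 4 (very intense pallor). The same individual received all tests, run 2-4 times per compound.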

The next data set is described as follows: in vitro. The following applies: rat, lung cytosol. It counts as in vitro ADME. The protocol:
To determine that the compounds of the invention can be stable during the incubation period, the test compounds A, B, C, and D were investigated for their stabilities at the incubation conditions, which are room temperature and 2 hours, for receptor binding studies. The frozen cytosol which was made for the receptor binding study was thawed in a water bath and diluted with 1 part of incubation buffer (10 mM Tris/HCl, 10 mM sodium molybdate, and 2 mM 1,4-dithiothreitol) containing a 15 mM concentration of enzyme inhibitor, diisopropyl fluorophosphate. Portions (560 μL) of the diluted cytosol were added to centrifuge tubes containing 80 μL portions of blank incubation buffer instead of volume of tracer ([^3 H]triamcinolone acetonide) which would be used in the receptor binding study (RBS), 80 μL of solution of a Δ^1 -cortienic acid (0.1 mM) in buffer (the final concentration of Δ^1 -cortienic acid in the incubation medium was […]), and 80 μL of 100,000 nM of concentrations of test compounds in ethanol to give a final concentration of 10,000 nM. This mixture was kept at room temperature for 2 hours. Samples of 0.1 mL were taken at appropriate time intervals (0, 0.5, 1, 1.5, 2 hours) and were mixed with 0.2 mL of acetonitrile containing 5% DMSO. Each mixture was centrifuged and the supernatant were injected in the HPLC.
Male Sprague-Dawley rats, each weighing 150 to 200 g, were used 6 days after adrenalectomy. Rats were sacrificed by decapitation. Immediately after resection of the lungs, the tissue was frozen in ice. The cytosol was prepared using a slight modification of a previously described method (Dahlberg, 1984); After addition of 6 volumes of ice-cold incubation buffer (10 mM Tris/HCl, 10 mM sodium molybdate, and 2 mM 1,4-dithiothreitol), the tissue was homogenized with the Virtis 45 homogenizer at full speed, for 4 periods of 10 seconds with a 10-second cooling period between each step. The homogenate was centrifuged at 35,000 g for 1 hour at 4° C. in a Beckman ultracentrifuge L8-70M equipped with a T170 rotor. Portions (5 ml) of the cytosol were frozen in liquid nitrogen and stored at -80° C.

Setting [3] is: 24 Hours, 1 hour re-occlusion at 20-21 hours, 0.01 mM.
Setting [4] is: 24 Hours, 1 hour re-occlusion at 20-21 hours, 0.05 mM.
Setting [5] is: 24 Hours, 1 hour re-occlusion at 20-21 hours, 0.1 mM.
Where [6] appears, read: 24 Hours, 1 hour re-occlusion at 20-21 hours, 0.5 mM.

Structures are written as SMILES.

In turn, `CCCCC(=O)O[C@]1(C(=O)CO)[C@@H](C)C[C@H]2[C@@H]3CCC4=CC(=O)C=C[C@]4(C)[C@@]3(F)[C@@H](O)C[C@@]21C` [Betamethasone 17-valerate, reference compound] had an RBA in data set [1] of 1742 ± 130. Moreover, the Vasoconstriction activity amounted to 0 in data set [2] (3 Hours, 0.01 mM); 1 in data set [2] (3 Hours, 0.05 mM); 1 in data set [2] (3 Hours, 0.1 mM); 2 in data set [2] (3 Hours, 0.5 mM); 3 in data set [2] (3 Hours, 1 mM); 3 in data set [2] (3 Hours, 5 mM). The Vasoconstriction activity in data set [2] (3 Hours, 10 mM) stood at 4; in data set [2] (20 Hours, 0.01 mM), 0; in data set [2] (20 Hours, 0.05 mM) it was 1; in data set [2] (20 Hours, 0.1 mM), 1; in data set [2] (20 Hours, 0.5 mM), 1; in data set [2] (20 Hours, 1 mM) it was 1. The Vasoconstriction activity worked out at 1 in data set [2] (20 Hours, 5 mM); 2 in data set [2] (20 Hours, 10 mM); 1 in data set [2] (setting [3]); 1 in data set [2] (setting [4]); 2 in data set [2] (setting [5]); 2 in data set [2] (setting [6]).
Consider `COC(=O)[C@@]1(OC(=O)C(Cl)Cl)CC[C@H]2[C@@H]3CCC4=CC(=O)C=C[C@]4(C)[C@H]3[C@@H](O)C[C@@]21C` [Compound A, Methyl 17α-dichloroacetoxy-11β-hydroxyandrosta-1,4-dien-3-one-17β-carboxylate], for which, in the data set “in vitro”, the amount remaining at 2 h was found to be 75% and the share remaining at 2 h, 10 µM worked out at 75.1%. In addition, in data set [1], the RBA is 165, the IC50 is 49.5 nM and the “Relative binding affinity (RBA)” value is 165. Further, the Vasoconstriction activity in data set [2] (3 Hours, 10 mM) is given as 4. Moreover, in data set [2] (20 Hours, 10 mM), the Vasoconstriction activity is reported as 2.
The molecule `CCOC(=O)[C@@]1(OC(=O)C(Cl)Cl)CC[C@H]2[C@@H]3CCC4=CC(=O)C=C[C@]4(C)[C@H]3[C@@H](O)C[C@@]21C` [Compound B, Ethyl 17α-dichloroacetoxy-11β-hydroxyandrosta-1,4-dien-3-one-17β-carboxylate] gave a share remaining at 2 h in “in vitro” of 75%. The fraction remaining at 2 h, 10 µM in “in vitro” was determined as 100%. In addition, the values for the Receptor binding affinity in data set [1] (With Δ1-cortienic acid (Table IX)) and in data set [1] (Without Δ1-cortienic acid (Table IX)) were 204 and 181, respectively. The same molecule came in with an RBA in data set [1] of 222 ± 16. In addition, the IC50 in data set [1] is 40.1 nM. In data set [1], the “Relative binding affinity (RBA)” value was found to be 204. Moreover, the Vasoconstriction activity in data set [2] (3 Hours, 0.01 mM) is given as 0; in data set [2] (3 Hours, 0.05 mM), 1; in data set [2] (3 Hours, 0.1 mM), 1; in data set [2] (3 Hours, 0.5 mM) it was 2; in data set [2] (3 Hours, 1 mM), 3; in data set [2] (3 Hours, 5 mM), 3. The Vasoconstriction activity amounted to 4 in data set [2] (3 Hours, 10 mM); 0 in data set [2] (20 Hours, 0.01 mM); 0 in data set [2] (20 Hours, 0.05 mM); 1 in data set [2] (20 Hours, 0.1 mM); 1 in data set [2] (20 Hours, 0.5 mM); 1 in data set [2] (20 Hours, 1 mM). Moreover, the Vasoconstriction activity in data set [2] (20 Hours, 5 mM) worked out at 1; in data set [2] (20 Hours, 10 mM), 2; in data set [2] (setting [3]), 1; in data set [2] (setting [4]) it was 1; in data set [2] (setting [5]), 2; in data set [2] (setting [6]), 2.
In “in vitro”, `CC(C)OC(=O)[C@@]1(OC(=O)C(Cl)Cl)CC[C@H]2[C@@H]3CCC4=CC(=O)C=C[C@]4(C)[C@H]3[C@@H](O)C[C@@]21C` [Compound C, Isopropyl 17α-dichloroacetoxy-11β-hydroxyandrosta-1,4-dien-3-one-17β-carboxylate] registered an amount remaining at 2 h of over 90% and a share remaining at 2 h, 10 µM of 100%. In addition, in data set [1], the RBA was 117, the IC50 amounted to 69.8 nM and the “Relative binding affinity (RBA)” value was 117. Further, the Vasoconstriction activity in data set [2] (3 Hours, 10 mM) is 4. Besides, the Vasoconstriction activity in data set [2] (20 Hours, 10 mM) came out at 1.
In the case of `C[C@]12C=CC(=O)C=C1CC[C@@H]1[C@@H]2[C@@H](O)C[C@@]2(C)[C@H]1CC[C@]2(OC(=O)C(Cl)Cl)C(=O)OCCl` [Compound D, Chloromethyl 17α-dichloroacetoxy-11β-hydroxyandrosta-1,4-dien-3-one-17β-carboxylate], in “in vitro”, the amount remaining at 2 h came out at 70% and the amount remaining at 2 h, 10 µM amounted to 70.6%. Further, in data set [1], the RBA came to 684, the concentration for half-maximal inhibition (IC50) worked out at 11.9 nM and the “Relative binding affinity (RBA)” value was found to be 684. The Vasoconstriction activity in data set [2] (3 Hours, 10 mM) was 4. Further, the Vasoconstriction activity in data set [2] (20 Hours, 10 mM) is 1.
